Broadly, the IC50 is the concentration that gives 50% inhibition. Low readings indicate greater potency, high ones weaker potency.

The structures appear in SMILES notation.

The assay deals with biosynthesis of cholesterol. Nature of the assay: CSI screen: inhibition of cholesterol biosynthesis (14C-acetate incorporation into nonsaponifiable lipid by rat liver homogenate). The class given is biochemical. The note with it: 50% inhibition of sterol synthesis over a one-hour period. As for the experimental part:
The ability of compounds of the present invention to inhibit the biosynthesis of cholesterol was measured by a method (designated CSI screen) which utilizes the procedure described by R. E. Dugan, et al, Archiv. Biochem. Biophys., (1972), 152, 21-27. In this method, the level of HMG-CoA enzyme activity in standard laboratory rats is increased by feeding the rats a chow diet containing 5% cholestryramine for four days, after which the rats are sacrificed.
The rat livers are homogenized, and the incorporation of […] into nonsaponifiable lipid by the rat liver homogenate is measured. The micromolar concentration of compound required for 50% inhibition of sterol synthesis over a one-hour period is measured, and expressed as an IC50 value.

On to `C=C1CC2(C)CC1C(c1ccccc1)=C2/C=C/[C@@H]1C[C@@H](O)CC(=O)O1` (relative stereo), for which the IC50 stood at 440 nM.

The values above are taken from patent US4957940A, “Bicyclo heptane and bicyclo octane substituted inhibitors of cholesterol synthesis” (Warner-Lambert Company, priority 1989, dated 1990).
